Experiments:
[1] = target: T1, proMMP9(20-445;ΔFnII) (SEQ ID NO:6) (Homo sapiens, UniProt P14780, DEL216-390); test: ThermoFluor binding assay with proMMP9(20-445;ΔFnII); conditions: pH 7.0
T1 construct: start methionine (N); made in house; host or cells: E. coli BL21(DE3) RIL
T1 sequence (P14780 with tags, fused parts or gaps DEL216-390): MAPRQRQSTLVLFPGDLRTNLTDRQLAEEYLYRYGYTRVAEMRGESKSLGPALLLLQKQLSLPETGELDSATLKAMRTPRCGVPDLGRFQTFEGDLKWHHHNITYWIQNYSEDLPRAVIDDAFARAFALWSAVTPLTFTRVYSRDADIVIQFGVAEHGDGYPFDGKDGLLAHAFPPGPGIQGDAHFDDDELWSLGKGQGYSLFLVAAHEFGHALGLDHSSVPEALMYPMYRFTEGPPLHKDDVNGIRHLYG
Procedure, shortened: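 proMMP9(20-445;ΔFnII) at 2.8 μM with 50 μM 1,8-ANS in 50 mM HEPES pH 7.0, 100 mM NaCl, 0.001% Tween-20, 2.5 mM MgCl2, 300 μM CaCl2; compounds serially diluted in DMSO. Heated 40–90 °C at 1 °C/min, fluorescence read at 500±25 nm. Tm fit by standard equations; binding fit using DSC/TF-derived thermodynamic parameters.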

proMMP9 = target: T2, proMMP9 (Homo sapiens, UniProt P14780); test: Activation of proMMP9 by human fetal lung fibroblast (HFL-1) cultures (Western blot); assay type: cell-based
T2 construct: host or cells: HFL-1 human fetal lung fibroblasts, TNFα plus human neutrophil elastase
T2 sequence (P14780 20-707 limits assumed): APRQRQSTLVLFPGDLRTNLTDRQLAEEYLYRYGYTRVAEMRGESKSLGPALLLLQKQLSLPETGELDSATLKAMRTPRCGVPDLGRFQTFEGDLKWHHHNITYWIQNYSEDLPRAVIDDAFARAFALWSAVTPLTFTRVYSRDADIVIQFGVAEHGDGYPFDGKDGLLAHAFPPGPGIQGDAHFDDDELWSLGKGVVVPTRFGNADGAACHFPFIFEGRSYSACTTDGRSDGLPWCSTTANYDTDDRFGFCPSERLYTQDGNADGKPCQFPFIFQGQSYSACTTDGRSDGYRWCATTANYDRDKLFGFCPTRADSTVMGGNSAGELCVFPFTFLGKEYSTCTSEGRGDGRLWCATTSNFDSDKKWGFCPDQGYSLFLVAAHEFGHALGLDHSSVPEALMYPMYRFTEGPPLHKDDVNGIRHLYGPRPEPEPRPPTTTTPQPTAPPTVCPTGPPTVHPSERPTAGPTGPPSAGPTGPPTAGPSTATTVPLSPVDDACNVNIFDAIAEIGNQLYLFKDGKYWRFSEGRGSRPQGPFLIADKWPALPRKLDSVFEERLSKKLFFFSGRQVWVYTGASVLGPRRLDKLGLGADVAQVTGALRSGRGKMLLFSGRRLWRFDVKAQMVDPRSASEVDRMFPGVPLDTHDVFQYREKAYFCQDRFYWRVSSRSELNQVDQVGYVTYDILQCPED
Protocol: Activation of proMMP9 by Human Fetal Lung Fibroblast Cultures Example 64 was assessed additionally for ability to block the maturation of proMMP9 to active MMP9 in cultures of human fetal lung fibroblasts (HFL-1, American Type Culture Collection #CCL-153). Unlike rat synoviocytes, HFL-1 cells were unable to process proMMP9 to the active form without addition of neutrophil elastase. […] Rather, the function of elastase in this assay may be to inactivate tissue inhibitors of matrix metalloproteinases (TIMPs) that repress endogenous pathways of MMP9 activation (Am J Respir Grit Care Med; 1999; 159:1138-46).
HLF-1 were maintained in monolayer culture in DMEM with 10% FCS and were used between passage numbers 5-15. HLF-1 were embedded in collagen gels as described for rat SCW synoviocytes (vida supra). Half mL gels containing 0.4 million cells were dislodged into wells of 12 well Costar plates containing 1 mL/well of DMEM adjusted to contain 0.05% BSA and 100 ng/mL human TNFα (R&D Systems Cat #210-TA/CF). After overnight culture (37° C. and 5% CO2) wells were adjusted to contain an additional 0.5 mL of DMEM containing 0.05% BSA and with or without 13.2 μM Example 64 (final concentration was 3.3 μM Example 64). Next, cultures were adjusted to contain 30 nM human elastase (Innovative Research). The plates were cultured an additional 72 hrs, at which time MMP9 secreted into the conditioned media was bound to gelatin-sepharose and evaluated by Western blot analysis as described for the rat synoviocyte cultures (vida supra). mAb-51/82 detected three forms of MMP9 in HFL-1 cultures.
A second experiment was performed to determine if the 80 kD form was mature active MMP9 and to determine the potency of Example 64 as an inhibitor of MMP9 maturation in this assay. HFL-1 cells embedded in collagen gels were cultured as described above in the presence of TNFα overnight and the cultures were then adjusted to contain 30 nM elastase and graded concentrations of Example 64 for an additional 72 hrs at which time MMP9 secreted into the conditioned media was bound to gelatin-sepharose and evaluated by Western blot analysis for active MMP9 using pAb-1246 raised against the N-terminal neoepitope of active MMP9 (Table 5). In the absence of Example 64, pAb-1246 readily detected MMP9 with an electrophoretic mobility of approximately 80 kD. […] Inhibition occurred over a dose range with an IC50 of approximately 0.3 μM Example 64.

## Cc1nc(C)c(-c2csc(Nc3cc(S(N)(=O)=O)ccc3OC(C)C)n2)s1 [Example 64, 3-(2′,4′-Dimethyl-[4,5′]bithiazolyl-2-ylamino)-4-isopropoxy-benzenesulfonamide.HBr]
[1]
  Kd: 100 nM
proMMP9; 3.3 μM, HFL-1, mAb-L51/82, 30 nM elastase, 72 hrs
  Signal (INT*mm^2) Total: 91346 INT*mm^2
proMMP9; HFL1, 0.12 μM, HFL-1, 80 kD band, pAb-1246
  inhibition at 0.12 µM: 0%
proMMP9; HFL1, 0.37 μM, HFL-1, 80 kD band, pAb-1246
  inhibition at 0.37 µM: 73%
proMMP9; HFL1, 1.1 μM, HFL-1, 80 kD band, pAb-1246
  inhibition at 1.1 µM: 99%
proMMP9; HFL1, 3.3 μM, HFL-1, 80 kD band, pAb-1246
  inhibition at 3.3 µM: 100%
proMMP9; HFL1, 10 μM, HFL-1, 80 kD band, pAb-1246
  inhibition at 10 µM: 100%

— patent publication US20120129842A1, “BISTHIAZOLE INHIBITORS OF PRO-MATRIX METALLOPROTEINASE ACTIVATION” (priority 2010, published 2012)
